Assay results as given in US8815503B2, “Compositions and methods for immunostimulatory RNA oligonucleotides” (Rheinische Friedrich-Wilhelms-Universitat Bonn, priority 2005, dated 2014).

System: PBMC
Assay: 193 ssRNA 4mer-motif library screen: IL-12 (IL-12p40) production in PBMC of six donors, poly-L-Arg complexation, ELISA at 44 hours, IL-12 index and adjusted IL-12 index
Assay type: cell-based, human
Set-up: key to Adjusted IL-12 index Mean: IL-12 index (ratio to 9.2sense) minus donor mean, averaged over 6 donors
Details: 193 ssRNA oligonucleotide library; data from six individual donors summarized; ascending order
Method: FIG. 9: PBMC of six different healthy donors were isolated and stimulated with poly-L-arginine complexed ssRNA oligonucleotides in duplicates. 44 hours after stimulation IL-12p40 production was assessed in supernatant via ELISA. For all tested ssRNA oligonucleotides (table 3), the mean values of the measured duplicates were normalized to the positive control ssRNA oligonucleotide 9.2sense (5′-AGCUUAACCUGUCCUUCAA (SEQ ID NO: 194)) by dividing the mean value of tested oligonucleotide by the mean value of 9.2sense (=IL-12 index of a given oligonucleotide). Next, all individual IL-12 indices were adjusted to the mean value of all IL-12 indices by subtracting the mean value of all IL-12 indices from the individual IL-12 index of a given oligonucleotide (=adjusted IL-12 index). Data from six individual donors were summarized and were assorted in ascending order displaying the corresponding SEM (for a complete listing including numerical data see table 4). FIG. 9A discloses SEQ ID NOS 460-509, respectively, in order of appearance. FIG. 9B discloses SEQ ID NOS 510-559, respectively, in order of appearance. FIG. 9C discloses SEQ ID NOS 560-609, respectively, in order of appearance. FIG. 9D discloses SEQ ID NOS 610-652, respectively, in order of appearance.
All 193 ssRNA oligonucleotides were tested on PBMC of six individual healthy donors using poly-L-Arg for complexation. At 44 hours after stimulation with RNA oligonucleotides, supernatants were collected and IL-12 production was measured by ELISA. Prior to statistical analysis the raw data were processed as follows: for each cell culture plate the mean IL-12 value of the experimental duplicates for each tested ssRNA oligonucleotide were normalized to the ssRNA oligonucleotide RNA9.2sense (5′-AGCUUAACCUGUCCUUCAA-3′ (SEQ ID NO: 194)). This standard RNA oligonucleotide was included as a positive control on all cell culture plates. Normalization was performed by calculating the ratio of IL-12 induced by the tested oligonucleotide and IL-12 induced by the standard oligonucleotide RNA9.2sense. Thus, for each tested oligonucleotide in an individual donor a mean ratio of IL-12 induction was obtained. In the following, this mean of the ratios is referred to as IL-12 index (one value of IL-12 index per donor). […] The corresponding IL-12 index of oligonucleotide ANP175 for donor 3 was calculated to be 1.90 (=1725 pg/ml divided by 908 pg/ml).
Next, the means of all IL-12 indices for every individual donor were calculated. Then the adjusted IL-12 indices were calculated as IL-12 index minus the mean of all IL-12 indices of one individual donor. […] The adjusted IL-12 index of ANP175 was calculated: 1.90 minus 0.44=1.46. The adjusted IL-12 indices from all six donors were summarized by calculating the means and the corresponding standard error of mean. The data are depicted in ascending order (FIG. 9A, B, C, D). The adjusted IL-12 indices of the top thirty ssRNA oligonucleotides of all six donors were compared using a two-tailed Student's t-test (FIG. 10). For most combinations tested, a significant difference was observed when the interval between the analyzed pairs was at least eight or nine places in the assortment.

Substance | Adjusted IL-12 index Mean
AAAAAAAAGUCAAAAAAAA (RNA, backbone not given here) [ANP-Oligo 035] | −0.22
AAAAAAAAGUGAAAAAAAA (RNA, backbone not given here) [ANP-Oligo 036] | −0.12
AAAAAAAAGUUAAAAAAAA (RNA, backbone not given here) [ANP-Oligo 037] | 0.21
AAAAAAAAUAAAAAAAAAA (RNA, backbone not given here) [ANP-Oligo 004] | −0.4
AAAAAAAAUACAAAAAAAA (RNA, backbone not given here) [ANP-Oligo 038] | −0.32
AAAAAAAAUAGAAAAAAAA (RNA, backbone not given here) [ANP-Oligo 039] | −0.05
AAAAAAAAUAUAAAAAAAA (RNA, backbone not given here) [ANP-Oligo 040] | −0.04
AAAAAAAAUCAAAAAAAAA (RNA, backbone not given here) [ANP-Oligo 011] | −0.43
AAAAAAAAUCCAAAAAAAA (RNA, backbone not given here) [ANP-Oligo 041] | −0.48
AAAAAAAAUCGAAAAAAAA (RNA, backbone not given here) [ANP-Oligo 042] | −0.64
AAAAAAAAUCUAAAAAAAA (RNA, backbone not given here) [ANP-Oligo 043] | −0.22
AAAAAAAAUGAAAAAAAAA (RNA, backbone not given here) [ANP-Oligo 012] | −0.23
AAAAAAAAUGCAAAAAAAA (RNA, backbone not given here) [ANP-Oligo 044] | 0.2
AAAAAAAAUGGAAAAAAAA (RNA, backbone not given here) [ANP-Oligo 045] | −0.29
AAAAAAAAUGUAAAAAAAA (RNA, backbone not given here) [ANP-Oligo 046] | 0.97
AAAAAAAAUUAAAAAAAAA (RNA, backbone not given here) [ANP-Oligo 013] | −0.09
AAAAAAAAUUCAAAAAAAA (RNA, backbone not given here) [ANP-Oligo 047] | −0.45
AAAAAAAAUUGAAAAAAAA (RNA, backbone not given here) [ANP-Oligo 048] | −0.35
AAAAAAAAUUUAAAAAAAA (RNA, backbone not given here) [ANP-Oligo 049] | −0.07
AAAAAAACAACAAAAAAAA (RNA, backbone not given here) [ANP-Oligo 050] | −0.64
AAAAAAACAAGAAAAAAAA (RNA, backbone not given here) [ANP-Oligo 051] | −0.66
AAAAAAACAAUAAAAAAAA (RNA, backbone not given here) [ANP-Oligo 052] | −0.37
AAAAAAACACCAAAAAAAA (RNA, backbone not given here) [ANP-Oligo 053] | −0.67
AAAAAAACACGAAAAAAAA (RNA, backbone not given here) [ANP-Oligo 054] | −0.65
AAAAAAACACUAAAAAAAA (RNA, backbone not given here) [ANP-Oligo 055] | −0.53
AAAAAAACAGCAAAAAAAA (RNA, backbone not given here) [ANP-Oligo 056] | −0.54
AAAAAAACAGGAAAAAAAA (RNA, backbone not given here) [ANP-Oligo 057] | −0.6

Substance | Adjusted IL-12 index Mean
AAAAAAACAGUAAAAAAAA (RNA, backbone not given here) [ANP-Oligo 058] | 0.22
AAAAAAACAUCAAAAAAAA (RNA, backbone not given here) [ANP-Oligo 059] | −0.48
AAAAAAACAUGAAAAAAAA (RNA, backbone not given here) [ANP-Oligo 060] | −0.46
AAAAAAACAUUAAAAAAAA (RNA, backbone not given here) [ANP-Oligo 061] | −0.23
AAAAAAACCACAAAAAAAA (RNA, backbone not given here) [ANP-Oligo 062] | −0.66
AAAAAAACCAGAAAAAAAA (RNA, backbone not given here) [ANP-Oligo 063] | −0.57
AAAAAAACCAUAAAAAAAA (RNA, backbone not given here) [ANP-Oligo 064] | −0.38
AAAAAAACCCCAAAAAAAA (RNA, backbone not given here) [ANP-Oligo 065] | −0.59
AAAAAAACCCGAAAAAAAA (RNA, backbone not given here) [ANP-Oligo 066] | −0.62
AAAAAAACCCUAAAAAAAA (RNA, backbone not given here) [ANP-Oligo 067] | −0.3
AAAAAAACCGCAAAAA4AA (DNA AAAAAAACCGCAAAAAAAA; RNA, backbone not given here) [ANP-Oligo 068] | −0.56
AAAAAAACCGGAAAAAAAA (RNA, backbone not given here) [ANP-Oligo 069] | −0.64
AAAAAAACCGUAAAAAAAA (RNA, backbone not given here) [ANP-Oligo 070] | −0.16
AAAAAAACCUCAAAAAAAA (RNA, backbone not given here) [ANP-Oligo 071] | −0.56
AAAAAAACCUGAAAAAAAA (RNA, backbone not given here) [ANP-Oligo 072] | −0.51
AAAAAAACCUUAAAAAAAA (RNA, backbone not given here) [ANP-Oligo 073] | −0.28
AAAAAAACGACAAAAAAAA (RNA, backbone not given here) [ANP-Oligo 074] | −0.6
AAAAAAACGAGAAAAAAAA (RNA, backbone not given here) [ANP-Oligo 075] | −0.65
AAAAAAACGAUAAAAAAAA (RNA, backbone not given here) [ANP-Oligo 076] | 0.02
AAAAAAACGCCAAAAAAAA (RNA, backbone not given here) [ANP-Oligo 077] | −0.62
AAAAAAACGCGAAAAAAAA (RNA, backbone not given here) [ANP-Oligo 078] | −0.59
AAAAAAACGCUAAAAAAAA (RNA, backbone not given here) [ANP-Oligo 079] | −0.09
AAAAAAACGGCAAAAAAAA (RNA, backbone not given here) [ANP-Oligo 080] | −0.65
AAAAAAACGGGAAAAAAAA (RNA, backbone not given here) [ANP-Oligo 081] | −0.63
AAAAAAACGGUAAAAAAAA (RNA, backbone not given here) [ANP-Oligo 082] | 0.29
AAAAAAACGUCAAAAAAAA (RNA, backbone not given here) [ANP-Oligo 083] | −0.27
AAAAAAACGUGAAAAAAAA (RNA, backbone not given here) [ANP-Oligo 084] | −0.2
